Results on 31 compounds are retold here after patent US8829007B2 (priority 2009, dated 2014).

Experiment [1] deals with A/PR/8/34 influenza virus. The experiment can be described thus: microbe, parasite or virus in culture. Format: cell-based.
Experiment [2] has as its system influenza A virus (A/PR/8/34). The experiment can be described thus: microbe, parasite or virus in culture. The experiment is classed as cell-based.
Setting [3] is: Influenza A virus, PR/8, MDCK, MDCK cells infected with A/PR/8/34, bDNA viral RNA, read-out: EC50 (mean all).
Where [4] appears, read: Influenza A virus, PR/8, MDCK, MDCK cells infected with A/PR/8/34, cell protection (CPE), read-out: IC50 (mean all).
[5] abbreviates: Influenza A virus, PR/8, MDCK, mean all, A/PR/8/34 influenza virus in MDCK cells, bDNA assay, read-out: EC50.
The mark [6] stands for this setting: Influenza A virus, PR/8, MDCK, mean all, A/PR/8/34 infected MDCK cells, CPE assay, read-out: IC50.

Where two headings read alike, the source gives them in different places. Some results are limits rather than exact numbers.

For the compound `CC(=O)N1CCCC[C@@H]1CNc1nc(-c2c[nH]c3ncc(Cl)cc23)ncc1F` [Compound 179, (R)-1-(2-((2-(5-chloro-1H-pyrrolo[2,3-b]pyridin-3-yl)-5-fluoropyrimidin-4-ylamino)methyl)piperidin-1-yl)ethanone], in experiment [1] (setting [3]), the EC50 (in general, the concentration giving half of the maximal effect) was less than 5 µM. Besides, the half-maximal inhibitory concentration (IC50) (in general, the concentration that gives 50% inhibition) in experiment [2] (setting [4]) is less than 5 µM.

Turning to `O=C(OCCF)N1CCCC[C@@H]1CNc1nc(-c2c[nH]c3ncc(Cl)cc23)ncc1F` [Compound 180, (R)-2-fluoroethyl 2-((2-(5-chloro-1H-pyrrolo[2,3-b]pyridin-3-yl)-5-fluoropyrimidin-4-ylamino)methyl)piperidine-1-carboxylate], the EC50 in experiment [1] (setting [3]) is less than 5 µM. The IC50 in experiment [2] (setting [4]) is less than 5 µM.

In the case of `O=C(c1nccs1)N1CCCC(CNc2nc(-c3c[nH]c4ncc(Cl)cc34)ncc2F)C1` (centres unmarked) [Compound 186], the EC50 in experiment [1] (setting [3]) was less than 5 µM. In addition, the IC50 in experiment [2] (setting [4]) was less than 5 µM.

As for `CCCNC(=O)N1CCCC(Nc2nc(-c3c[nH]c4ncc(Cl)cc34)ncc2F)C1` (centres unmarked) [Compound 196], the EC50 in experiment [1] (read-out: EC50 (mean all)) was less than 5 µM. For the same compound, in experiment [2] (read-out: IC50 (mean all)), the IC50 was less than 5 µM.

On to `CCC(=O)N1CCCC[C@@H]1CNc1nc(-c2c[nH]c3ncc(Cl)cc23)ncc1F` [Compound 208, (R)-1-(2-((2-(5-chloro-1H-pyrrolo[2,3-b]pyridin-3-yl)-5-fluoropyrimidin-4-ylamino)methyl)piperidin-1-yl)propan-1-one], for which, in experiment [1] (setting [3]), the EC50 is less than 5 µM. In experiment [2] (setting [4]), the IC50 was less than 5 µM.

Regarding `O=C(c1ccc(F)cc1)N1CCCC[C@@H]1CNc1nc(-c2c[nH]c3ncc(Cl)cc23)ncc1F` [Compound 209, (R)-(2-((2-(5-chloro-1H-pyrrolo[2,3-b]pyridin-3-yl)-5-fluoropyrimidin-4-ylamino)methyl)piperidin-1-yl)(4-fluorophenyl)methanone], the half-maximal effective concentration (EC50) in experiment [1] (setting [3]) is less than 5 µM. Also, the IC50 in experiment [2] (setting [4]) is less than 5 µM.

Take `O=C(c1cccc(C(F)(F)F)c1)N1CCCC[C@@H]1CNc1nc(-c2c[nH]c3ncc(Cl)cc23)ncc1F` [Compound 210, (R)-(2-((2-(5-chloro-1H-pyrrolo[2,3-b]pyridin-3-yl)-5-fluoropyrimidin-4-ylamino)methyl)piperidin-1-yl)(3-(trifluoromethyl)phenyl)methanone]: the EC50 in experiment [1] (setting [3]) is 5 to 10 µM. Besides, the concentration for half-maximal inhibition (IC50) in experiment [2] (setting [4]) was greater than 20 µM.

`C=CCCC(=O)N1CCCC[C@@H]1CNc1nc(-c2c[nH]c3ncc(Cl)cc23)ncc1F` [Compound 279, (R)-1-(2-((2-(5-chloro-1H-pyrrolo[2,3-b]pyridin-3-yl)-5-fluoropyrimidin-4-ylamino)methyl)piperidin-1-yl)pent-4-en-1-one]: in experiment [1] (setting [3]), the concentration giving a half-maximal response (EC50) is less than 5 µM. Further, the concentration for half-maximal inhibition (IC50) in experiment [2] (setting [4]) is less than 5 µM.

For `O=C(CC(F)(F)F)N1CCCC[C@@H]1CNc1nc(-c2c[nH]c3ncc(Cl)cc23)ncc1F` [Compound 280, (R)-1-(2-((2-(5-chloro-1H-pyrrolo[2,3-b]pyridin-3-yl)-5-fluoropyrimidin-4-ylamino)methyl)piperidin-1-yl)-3,3,3-trifluoropropan-1-one], the EC50 in experiment [1] (setting [3]) is less than 5 µM. For the same compound, in experiment [2] (setting [4]), the half-maximal inhibitory concentration (IC50) was less than 5 µM.

Regarding `C#CCCCC(=O)N1CCCC[C@@H]1CNc1nc(-c2c[nH]c3ncc(Cl)cc23)ncc1F` [Compound 281, (R)-1-(2-((2-(5-chloro-1H-pyrrolo[2,3-b]pyridin-3-yl)-5-fluoropyrimidin-4-ylamino)methyl)piperidin-1-yl)hex-5-yn-1-one], in experiment [1] (setting [3]), the 50% effective concentration (EC50) was less than 5 µM. In addition, the concentration for half-maximal inhibition (IC50) in experiment [2] (setting [4]) was less than 5 µM.

As for `O=C(CCc1ccccc1)N1CCCC[C@@H]1CNc1nc(-c2c[nH]c3ncc(Cl)cc23)ncc1F` [Compound 293, (R)-1-(2-((2-(5-chloro-1H-pyrrolo[2,3-b]pyridin-3-yl)-5-fluoropyrimidin-4-ylamino)methyl)piperidin-1-yl)-3-phenylpropan-1-one], the EC50 in experiment [1] (setting [3]) is less than 5 µM. In addition, the IC50 in experiment [2] (setting [4]) is less than 5 µM.

Regarding `CCCC(=O)N1CCCC[C@@H]1CNc1nc(-c2c[nH]c3ncc(Cl)cc23)ncc1F` [Compound 295, (R)-1-(2-((2-(5-chloro-1H-pyrrolo[2,3-b]pyridin-3-yl)-5-fluoropyrimidin-4-ylamino)methyl)piperidin-1-yl)butan-1-one], in experiment [1] (setting [3]), the concentration for a half-maximal effect (EC50) is less than 5 µM. Besides, in experiment [2] (setting [4]), the IC50 was less than 5 µM.

Consider `CCCS(=O)(=O)N1CCC[C@H](Nc2nc(-c3c[nH]c4ncc(Cl)cc34)ncc2F)C1` [Compound 306, (S)-2-(5-chloro-1H-pyrrolo[2,3-b]pyridin-3-yl)-5-fluoro-N-(1-(propylsulfonyl)-piperidin-3-yl)pyrimidin-4-amine], for which the concentration giving a half-maximal response (EC50) in experiment [1] (setting [5]) was less than 5 µM. For the same compound, the IC50 in experiment [2] (setting [6]) was less than 5 µM.

With `CCCS(=O)(=O)N1CCC[C@@H](Nc2nc(-c3c[nH]c4ncc(Cl)cc34)ncc2F)C1` [Compound 316, (R)-2-(5-chloro-1H-pyrrolo[2,3-b]pyridin-3-yl)-5-fluoro-N-(1-(propylsulfonyl)piperidin-3-yl)pyrimidin-4-amine], in experiment [1] (setting [5]), the EC50 is less than 5 µM. For the same compound, the concentration for half-maximal inhibition (IC50) in experiment [2] (setting [6]) is 5 to 20 µM.

Consider `O=C(C1CC1)N1CCC[C@@H](Nc2nc(-c3c[nH]c4ncc(Cl)cc34)ncc2F)C1` [Compound 317], for which, in experiment [1] (setting [5]), the EC50 is less than 5 µM. In experiment [2] (setting [6]), the IC50 was in the range of 5 to 20 µM.

Take `CC(C)CC(=O)N1CCC[C@@H](Nc2nc(-c3c[nH]c4ncc(Cl)cc34)ncc2F)C1` [Compound 318]: in experiment [1] (setting [5]), the 50% effective concentration (EC50) was less than 5 µM. For the same compound, the IC50 in experiment [2] (setting [6]) was greater than 20 µM.

For `O=C(C1CCC1)N1CCC[C@@H](Nc2nc(-c3c[nH]c4ncc(Cl)cc34)ncc2F)C1` [Compound 319], the EC50 in experiment [1] (setting [5]) was less than 5 µM. Further, the IC50 in experiment [2] (setting [6]) is greater than 20 µM.

In the case of `COCCC(=O)N1CCC[C@@H](Nc2nc(-c3c[nH]c4ncc(Cl)cc34)ncc2F)C1` [Compound 320], the 50% effective concentration (EC50) in experiment [1] (setting [5]) was 5 to 10 µM. Also, the IC50 in experiment [2] (setting [6]) is 5 to 20 µM.

For `CCS(=O)(=O)N1CCC[C@@H](Nc2nc(-c3c[nH]c4ncc(Cl)cc34)ncc2F)C1` [Compound 321, (R)-2-(5-chloro-1H-pyrrolo[2,3-b]pyridin-3-yl)-N-(1-(ethylsulfonyl)piperidin-3-yl)-5-fluoropyrimidin-4-amine], in experiment [1] (setting [5]), the 50% effective concentration (EC50) is less than 5 µM. Moreover, in experiment [2] (setting [6]), the IC50 fell in the range of 5 to 20 µM.

For the compound `CC(C)S(=O)(=O)N1CCC[C@@H](Nc2nc(-c3c[nH]c4ncc(Cl)cc34)ncc2F)C1` [Compound 322, (R)-2-(5-chloro-1H-pyrrolo[2,3-b]pyridin-3-yl)-5-fluoro-N-(1-(isopropylsulfonyl)-piperidin-3-yl)pyrimidin-4-amine], in experiment [1] (setting [5]), the EC50 is less than 5 µM. The 50% inhibitory concentration (IC50) in experiment [2] (setting [6]) was greater than 20 µM.

Regarding `CCCCNC(=O)N1CCC[C@H](Nc2nc(-c3c[nH]c4ncc(Cl)cc34)ncc2F)C1` [Compound 323], in experiment [1] (setting [5]), the EC50 is less than 5 µM. The IC50 in experiment [2] (setting [6]) was greater than 20 µM.

As for `CCCNC(=O)N1CCC[C@H](Nc2nc(-c3c[nH]c4ncc(Cl)cc34)ncc2F)C1` [Compound 324], the half-maximal effective concentration (EC50) in experiment [1] (setting [5]) was less than 5 µM. Further, the concentration for half-maximal inhibition (IC50) in experiment [2] (setting [6]) fell in the range of 5 to 20 µM.

`O=C(C1CC1)N1CCC[C@H](CNc2nc(-c3c[nH]c4ncc(Cl)cc34)ncc2F)C1` [Compound 325, (R)-(3-((2-(5-chloro-1H-pyrrolo[2,3-b]pyridin-3-yl)-5-fluoropyrimidin-4-ylamino)methyl)piperidin-1-yl)(cyclopropyl)methanone]: the EC50 in experiment [1] (setting [5]) was less than 5 µM. Further, in experiment [2] (setting [6]), the 50% inhibitory concentration (IC50) is 5 to 20 µM.

Take `CCCCC(=O)N1CCCC[C@@H]1CNc1nc(-c2c[nH]c3ncc(Cl)cc23)ncc1F` [Compound 326, (R)-1-(2-((2-(5-chloro-1H-pyrrolo[2,3-b]pyridin-3-yl)-5-fluoropyrimidin-4-ylamino)methyl)piperidin-1-yl)pentan-1-one]: the EC50 in experiment [1] (setting [5]) is less than 5 µM. Besides, in experiment [2] (setting [6]), the IC50 was in the range of 5 to 20 µM.

Consider `COCCC(=O)N1CCC[C@H](CNc2nc(-c3c[nH]c4ncc(Cl)cc34)ncc2F)C1` [Compound 327, (R)-1-(3-((2-(5-chloro-1H-pyrrolo[2,3-b]pyridin-3-yl)-5-fluoropyrimidin-4-ylamino)methyl)piperidin-1-yl)-3-methoxypropan-1-one], for which the concentration for a half-maximal effect (EC50) in experiment [1] (setting [5]) was less than 5 µM. In experiment [2] (setting [6]), the IC50 is less than 5 µM.

In the case of `O=S(=O)(CCCCl)N1CCCC[C@@H]1CNc1nc(-c2c[nH]c3ncc(Cl)cc23)ncc1F` [Compound 330, (R)-2-(5-chloro-1H-pyrrolo[2,3-b]pyridin-3-yl)-N-((1-(3-chloropropylsulfonyl)piperidin-2-yl)methyl)-5-fluoropyrimidin-4-amine], in experiment [1] (setting [5]), the 50% effective concentration (EC50) is less than 5 µM. In experiment [2] (setting [6]), the IC50 is less than 5 µM.

`CC(C)CC(=O)N1CCC[C@H](Nc2nc(-c3c[nH]c4ncc(Cl)cc34)ncc2F)C1` [Compound 332]: in experiment [1] (setting [5]), the EC50 was less than 5 µM. For the same compound, the 50% inhibitory concentration (IC50) in experiment [2] (setting [6]) is less than 5 µM.

Regarding `CCNC(=O)N1CCCC[C@@H]1CNc1nc(-c2c[nH]c3ncccc23)ncc1F` [Compound 373, (R)—N-ethyl-2-((5-fluoro-2-(1H-pyrrolo[2,3-b]pyridin-3-yl)pyrimidin-4-ylamino)-methyl)piperidine-1-carboxamide], the EC50 in experiment [1] (setting [5]) is greater than 10 µM. In addition, in experiment [2] (setting [6]), the IC50 was in the range of 5 to 20 µM.

In the case of `CCCNC(=O)N1CCCC[C@@H]1CNc1nc(-c2c[nH]c3ncccc23)ncc1F` [Compound 375, (R)-2-((5-fluoro-2-(1H-pyrrolo[2,3-b]pyridin-3-yl)pyrimidin-4-ylamino)methyl)-N-propylpiperidine-1-carboxamide], the EC50 in experiment [1] (setting [5]) lay within 5 to 10 µM. The half-maximal inhibitory concentration (IC50) in experiment [2] (setting [6]) fell in the range of 5 to 20 µM.

With `CN1CCC(Nc2nc(-c3c[nH]c4ncc(Cl)cc34)ncc2F)C1=O` (centres unmarked) [Compound 379], in experiment [1] (setting [5]), the concentration for a half-maximal effect (EC50) is less than 5 µM. Also, in experiment [2] (setting [6]), the 50% inhibitory concentration (IC50) fell in the range of 5 to 20 µM.

For the compound `CS(=O)(=O)N1CCCC[C@@H]1CNc1nc(-c2c[nH]c3ncc(Cl)cc23)ncc1F` [Compound 381, (R)-2-(5-chloro-1H-pyrrolo[2,3-b]pyridin-3-yl)-5-fluoro-N-((1-(methylsulfonyl)-piperidin-2-yl)methyl)pyrimidin-4-amine], the EC50 in experiment [1] (setting [5]) was less than 5 µM. The IC50 in experiment [2] (setting [6]) was less than 5 µM.
